The source of these data is patent US20260001914A1, “MACROCYCLIC PEPTIDES TARGETING KRAS” (Merck Sharp & Dohme LLC, priority 2022, published 2026).

*1 amine or outer side, *2 acyl side, *3 side chain or, on linkers, in order; H or OH if unused. Where a SMILES comes first, the peptide text is derived from it. Bridges are numbered along the chain shown (N, C = ends). [ ]: non-standard residue; d: D form. The star is where a group is joined. Phe(4-guanidino) = N=C(N)Nc1ccc(C[C@H](N)C(=O)O)cc1; Ala(pyrimidin-5-yl) = N[C@@H](Cc1cncnc1)C(=O)O; Trp(1-Me) = Cn1cc(C[C@H](N)C(=O)O)c2ccccc21; X5 = O=C([C@H](Cc1c(F)ccnc1F)N[*:1])[*:2]; X11 = CC(C)(F)CC[C@H](N[*:1])C(=O)[*:2]; X15 = O=C([C@H](Cc1cnccc1F)N[*:1])[*:2]; Arg(Me2s) = CN=C(NC)NCCC[C@H](N)C(=O)O; NMeAha = CN[C@@H](CCN=[N+]=[N-])C(=O)O; Phe(4-F) = N[C@@H](Cc1ccc(F)cc1)C(=O)O; X32 = CS(=O)(=O)CCCN(CC(=O)[*:2])[*:1]; 1Nal = N[C@@H](Cc1cccc2ccccc12)C(=O)O; NHCH2CH2SCH2CO = O=C(CSCCN[*:1])[*:2]; Phe(2-F) = N[C@@H](Cc1ccccc1F)C(=O)O; NMe3Pal = CN[C@@H](Cc1cccnc1)C(=O)O; X1 = O=C(C12CC(CN[*:1])(C1)C2)[*:2]; X38 = NC(=O)CCCN(CC(=O)[*:2])[*:1]; X53 = C[C@@H](CSCC(=O)[*:2])N[*:1]; Ala(cPr) = N[C@@H](CC1CC1)C(=O)O; NMeF = CN[C@@H](Cc1ccccc1)C(=O)O; PhLac = O=C(O)[C@@H](O)Cc1ccccc1; 3Pal = N[C@@H](Cc1cccnc1)C(=O)O; 4Pal = N[C@@H](Cc1ccncc1)C(=O)O; d3Pal = N[C@H](Cc1cccnc1)C(=O)O; AllylGly = C=CC[C@H](N)C(=O)O; Ahp(2) = CCCCC[C@H](N)C(=O)O; Cba = N[C@@H](CC1CCC1)C(=O)O; hLeu = CC(C)CC[C@H](N)C(=O)O; αMeC = C[C@](N)(CS)C(=O)O; NMeA = CN[C@@H](C)C(=O)O; Nle = CCCC[C@H](N)C(=O)O; Pyrrolidide = C1CCN(*)C1; Nva = CCC[C@H](N)C(=O)O

Chain of KRAS-G12D protein (P01116 1-188 isoform P01116-2 G12D): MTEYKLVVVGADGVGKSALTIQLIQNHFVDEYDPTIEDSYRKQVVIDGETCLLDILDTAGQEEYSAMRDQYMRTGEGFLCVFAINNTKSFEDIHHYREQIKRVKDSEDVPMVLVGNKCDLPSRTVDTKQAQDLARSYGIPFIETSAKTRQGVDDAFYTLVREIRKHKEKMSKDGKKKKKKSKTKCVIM

The assay addresses KRAS-G12D protein (Homo sapiens, UniProt P01116, G12D). Nature of the assay: SOS-mediated nucleotide exchange assay (BODIPY-GDP / Tb-streptavidin TR-FRET). It is filed as biochemical. For orientation: In TR-FRET formats the signal depends on donor and acceptor labels being close together.
For the compound `CC(C)CC[C@@H]1NC(=O)[C@H](Cc2cnccc2F)NC(=O)[C@H](CC2CC2)NC(=O)[C@H](Cc2cncnc2)NC(=O)[C@H](C)N(C)C(=O)[C@H](Cc2ccccc2)OC(=O)C23CC(CNC(=O)[C@H](Cc4ccccc4)N(C)C1=O)(C2)C3` [compound 213, cyclo(FLac-NMcA-PyrimAla-cPrA-3Pal6F-hL-NMeF-amBCP)] (cyclo([Ala(cPr)][X15][hLeu][NMeF][X1][PhLac][NMeA][Ala(pyrimidin-5-yl)])), the concentration giving a half-maximal response (EC50) (in general, the concentration at which the effect is half-maximal) was 3.72 nM. This counts as single-digit nanomolar.
In the case of `CCCCC[C@@H]1NC(=O)[C@H](Cc2ccc(OC)cc2)NC(=O)[C@H](CC2CCC2)NC(=O)[C@H](Cc2ccc(N(C)C(=N)NC)cc2)NC(=O)[C@H](CCCNC(=N)N)NC(=O)[C@H](Cc2ccccc2)NC(=O)CSC[C@@](C)(C(N)=O)NC(=O)[C@H](Cc2ccccc2)N(C)C1=O` [compound 382, cyclo(F-R-Phe4GnMeMe-cBuA-TyrOMe-Ahp-NMeF-aMeCl-ClAc)], the half-maximal effective concentration (EC50) worked out at 1.6 nM.
In the case of `CCCCC[C@@H]1NC(=O)[C@H](Cc2ccc(OC)cc2)NC(=O)[C@H](CC2CCC2)NC(=O)[C@H](Cc2ccc(NC(=N)N)cc2)NC(=O)CN(CCCC(N)=O)C(=O)[C@H](Cc2ccccc2)NC(=O)CSC[C@@](C)(C(N)=O)NC(=O)[C@H](Cc2ccccc2)N(C)C1=O` [compound 386, cyclo(F-Cmpg-Phe4Gn-cBuA-TyrOMe-Abp-NMeF-aMeCl-ClAc)] ({CH2CO}-F[X38][Phe(4-guanidino)][Cba]Y(Me)[Ahp(2)][NMeF][αMeC]-NH2; thioether N-8) it was 134 nM; in that of `CCCCC[C@@H]1NC(=O)[C@H](Cc2ccc(OC)cc2)NC(=O)[C@H](CC2CCC2)NC(=O)[C@H](Cc2ccoc2)NC(=O)[C@H](CCCNC(=N)N)NC(=O)[C@H](Cc2ccccc2)NC(=O)CSC[C@@](C)(C(N)=O)NC(=O)[C@H](Cc2ccccc2)N(C)C1=O` [compound 371, cyclo(F-R-Ala3Fur-cBuA-TyrOMe-Ahp-NMeF-aMeCl-ClAc)], 82.6 nM; in that of `CCCC[C@@H]1NC(=O)[C@H](Cc2ccc(NC(=N)N)cc2)NC(=O)[C@H](CCCNC(=N)N)NC(=O)[C@H](Cc2cccc3ccccc23)NC(=O)CNC(=O)[C@@H](C)NC(=O)[C@H](Cc2ccccc2)N(C)C(=O)[C@H](CCCC)NC(=O)[C@H](Cc2ccc(O)cc2)NC1=O` [compound 200, cyclo(1Nal-R-Phe4Gn-Nle-Y-Nle-NMeF-dA-G)] (cyclo([1Nal]R[Phe(4-guanidino)][Nle]Y[Nle][NMeF][dA]G)), 52.9 nM.
Consider `CCCC[C@@H]1NC(=O)[C@@H]2C/C=C\C[C@@H](C(N)=O)NC(=O)[C@H](CSCC(=O)N[C@@H](Cc3ccccc3)C(=O)N[C@@H](CCCNC(=N)N)C(=O)N[C@@H](Cc3cccnc3)C(=O)N[C@@H](CC3CCC3)C(=O)N2)NC(=O)[C@H](Cc2cccnc2)N(C)C1=O` [SEQ ID NO: 186, cyclo(C1Ac-F-R-3Pal-cBuA-Ape-Nle-NMe3Pal-C)] ({CH2CO}-FR[3Pal][Cba][AllylGly][Nle][NMe3Pal]C[AllylGly]-NH2; staple (Z) 5-9; thioether N-8), for which the EC50 is 7270 nM.
In the case of `CC(C)CC[C@@H]1NC(=O)[C@H](Cc2c(F)ccnc2F)NC(=O)[C@H](CC2CC2)NC(=O)[C@H](Cc2cncnc2)NC(=O)[C@H](C)N(C)C(=O)[C@H](Cc2ccccc2)OC(=O)C23CC(CNC(=O)[C@H](Cc4ccccc4)N(C)C1=O)(C2)C3` [compound 295, cyclo(FLac-NMeA-PyrimAla-cPrA-3Pal26F2-hL-NMeF-amBCP)] (cyclo([Ala(cPr)][X5][hLeu][NMeF][X1][PhLac][NMeA][Ala(pyrimidin-5-yl)])) it was 63 nM; in that of `CCCC[C@@H]1NC(=O)[C@H](CCCNC(=N)N)NC(=O)[C@H](Cc2ccccc2)NC(=O)CSCCNC(=O)[C@H](Cc2ccccc2)N(C)C(=O)[C@H](CCCC)NC(=O)[C@H](Cc2ccc(O)cc2)NC(=O)[C@H](CC(C)C)NC1=O` [compound 81, cyclo(F-R-Nle-L-Y-Nle-NMeF-Cysteamine-ClAc)] (cyclo(FR[Nle]LY[Nle][NMeF][NHCH2CH2SCH2CO])), 7980 nM.
In the case of `CCC[C@@H]1NC(=O)[C@H](Cc2ccc(OC)cc2)NC(=O)[C@H](CC(C)C)NC(=O)[C@H](Cc2ccncc2)NC(=O)[C@H](CCCNC(=N)N)NC(=O)[C@H](Cc2ccc(F)cc2)NC(=O)CSC[C@H](C(=O)NCC(=O)NCC(=O)O)NC(=O)[C@H](Cc2ccccc2)N(C)C1=O` [compound 66, cyclo(Phe4F-R-4Pal-L-TyrOMe-Nva-NMeF-dC6-ClAc)] ({CH2CO}-[Phe(4-F)]R[4Pal]LY(Me)[Nva][NMeF][dC]GG-OH; thioether N-8) it was 369 nM; in that of `CCCC[C@@H]1NC(=O)[C@H](Cc2cccnc2)NC(=O)[C@H](CCN=[N+]=[N-])N(C)C(=O)[C@H](Cc2ccccc2)NC(=O)C23CC(CNC(=O)[C@H](Cc4cccnc4)N(C)C(=O)[C@H](CCCC)NC(=O)[C@H](Cc4ccccc4F)NC1=O)(C2)C3` [compound 245, cyclo(F-NMeDabN3-3Pal-Nle-Phe2F-Nle-NMe3Pal-amBCP)] (cyclo(F[NMeAha][3Pal][Nle][Phe(2-F)][Nle][NMe3Pal][X1])), 267 nM; in that of `CC(C)CC[C@@H]1NC(=O)[C@H](Cc2ccccc2F)NC(=O)[C@H](CC2CC2)NC(=O)[C@H](Cc2cccnc2)NC(=O)[C@H](C)N(C)C(=O)[C@H](Cc2ccccc2)OC(=O)C23CC(CNC(=O)[C@H](Cc4cccnc4F)N(C)C1=O)(C2)C3` (single isomer, unassigned) [compound 297, cyclo(FLac-NMeA-3Pal-cPrA-Phe2F-hL-NMe3Pal2F-amBCP)], 4 nM.
In the case of `CCCC[C@@H]1NC(=O)[C@H](Cc2ccc(OC)cc2)NC(=O)[C@H](CC2CCC2)NC(=O)[C@@H](Cc2cccnc2)NC(=O)[C@H](CCCNC(=N)N)NC(=O)[C@H](Cc2ccccc2)NC(=O)CSC[C@H](C)NC(=O)[C@H](Cc2ccccc2)N(C)C1=O` [compound 180, cyclo(F-R-d3Pal-cBuA-TyrOMe-Nle-NMeF-Smcysteamine-ClAc)] (cyclo([Cba]Y(Me)[Nle][NMeF][X53]FR[d3Pal])) it was 37.8 nM; in that of `CCCC[C@@H]1NC(=O)[C@H](Cc2ccc(O)cc2)NC(=O)[C@H](CC2CCCCC2)NC(=O)[C@H](CCCCN)NC(=O)[C@H](CCCNC(=N)N)NC(=O)[C@H](Cc2cccc3ccccc23)NC(=O)CSC[C@H](C(N)=O)NC(=O)[C@H](Cc2ccccc2)N(C)C1=O` [compound 139, cyclo(INal-R-K-Cha-Y-Nle-NMeF-dCl-ClAc)], 5990 nM; in that of `C[C@H]1C(=O)N[C@@H](Cc2cncnc2)C(=O)N[C@@H](CC2CC2)C(=O)N[C@@H](Cc2ccccc2F)C(=O)N[C@@H](CCC(C)(C)F)C(=O)N(C)[C@@H](Cc2ccccc2)C(=O)NCC23CC(C2)(C3)C(=O)O[C@@H](Cc2ccccc2)C(=O)N1C` [compound 277, cyclo(FLac-NMeA-PyrimAla-cPrA-Phe2F-hL3F-NMeF-amBCP)] (cyclo([Ala(cPr)][Phe(2-F)][X11][NMeF][X1][PhLac][NMeA][Ala(pyrimidin-5-yl)])), 2 nM.
Regarding `CCCC[C@@H]1NC(=O)[C@H](Cc2cccnc2)NC(=O)[C@H](C)N(C)C(=O)[C@H](Cc2ccc(OC)cc2)NC(=O)C23CC(CNC(=O)[C@H](Cc4cccnc4)N(C)C(=O)[C@H](CCCC)NC(=O)[C@H](Cc4ccccc4F)NC1=O)(C2)C3` [compound 169, cyclo(TyrOMe-NMeA-3Pal-Nle-Phe2F-Nle-NMe3Pal-amBCP)] (cyclo([3Pal][Nle][Phe(2-F)][Nle][NMe3Pal][X1]Y(Me)[NMeA])), the EC50 turned out to be 757 nM.
In the case of `CCCCC[C@@H]1NC(=O)[C@H](Cc2ccc(OC)cc2)NC(=O)[C@H](CC2CCC2)NC(=O)[C@H](Cc2cccnc2)NC(=O)[C@H](C)N(C)C(=O)[C@H](Cc2ccccc2)OC(=O)C23CC(CNC(=O)[C@H](Cc4ccccc4)N(C)C1=O)(C2)C3` [compound 227, cyclo(FLac-NMeA-3Pal-cBuA-TyrOMe-Ahp-NMeF-amBCP)] (cyclo([3Pal][Cba]Y(Me)[Ahp(2)][NMeF][X1][PhLac][NMeA])) it was 37.9 nM.
In the case of `CCCCC[C@@H]1NC(=O)[C@H](Cc2ccc(OC)cc2)NC(=O)[C@H](CC2CCC2)NC(=O)[C@H](Cc2ccc(NC(=N)N)cc2)NC(=O)CN(CCCS(C)(=O)=O)C(=O)[C@H](Cc2ccccc2)NC(=O)CSC[C@@](C)(C(N)=O)NC(=O)[C@H](Cc2ccccc2)N(C)C1=O` [compound 389, cyclo(F-Mspg-Phe4Gn-cBuA-TyrOMe-Ahp-NMeF-aMeCl-ClAc)] ({CH2CO}-F[X32][Phe(4-guanidino)][Cba]Y(Me)[Ahp(2)][NMeF][αMeC]-NH2; thioether N-8) it was 441 nM.
In the case of `CCCCC[C@@H]1NC(=O)[C@H](Cc2ccc(O)cc2)NC(=O)[C@H](CC(C)C)NC(=O)[C@H](Cc2ccc(O)cc2)NC(=O)[C@H](CCCNC(=N)N)NC(=O)[C@H](Cc2cn(C)c3ccccc23)NC(=O)CSC[C@@H](C(N)=O)NC(=O)[C@H](Cc2ccccc2)N(C)C1=O` [compound 6, cyclo(TrplMe-R-Y-L-Y-Ahp-NMeF-Cl-ClAc)] ({CH2CO}-[Trp(1-Me)]RYLY[Ahp(2)][NMeF]C-NH2; thioether N-8) it was 288 nM.
Turning to `CCCC[C@@H]1NC(=O)[C@H](Cc2ccc(OC)cc2)NC(=O)[C@H](CC(C)C)NC(=O)[C@H](Cc2ccc(NC(=N)N)cc2)NC(=O)[C@H](CCCN=C(NC)NC)NC(=O)[C@H](Cc2ccccc2)NC(=O)CSC[C@H](C(N)=O)NC(=O)[C@H](Cc2ccccc2)N(C)C1=O` [compound 46, cyclo(F-ArgMeMe-Phe4Gn-L-TyrOMe-Nle-NMeF-dCl-ClAc)] ({CH2CO}-F[Arg(Me2s)][Phe(4-guanidino)]LY(Me)[Nle][NMeF][dC]-NH2; thioether N-8), the response was half-maximal at 1160 nM (EC50).
Turning to `CCCCC[C@@H]1NC(=O)[C@H](CC(=O)N2CCCC2)NC(=O)[C@H](CC2CCC2)NC(=O)[C@H](Cc2cccnc2)NC(=O)[C@H](CCCNC(=N)N)NC(=O)[C@H](Cc2ccccc2)NC(=O)CSC[C@@](C)(C(N)=O)NC(=O)[C@H](Cc2ccccc2)N(C)C1=O` [compound 373, cyclo(F-R~3Pal-cBuA-PyD-Ahp-NMeF-aMeCl-ClAc)] ({CH2CO}-FR[3Pal][Cba]D(Pyrrolidide)[Ahp(2)][NMeF][αMeC]-NH2; thioether N-8), the EC50 was 1970 nM.
In the case of `COc1ccc(C[C@@H]2NC(=O)[C@H](CC3CCC3)NC(=O)[C@H](Cc3cccnc3)NC(=O)[C@H](CCCNC(=N)N)NC(=O)[C@H](Cc3ccccc3)NC(=O)CSC[C@](C)(C(N)=O)NC(=O)[C@@H]3CCCCCCCC[C@H](NC2=O)C(=O)N3C)cc1` [SEQ ID NO: 193, cyclo(F-R-3Pal-cBuA-TyrOMe-AheNMeAhe-aMeC-C1Ac)] it was 900 nM.
